Patent publication US10947252B2, “Inhibitors of KEAP1-Nrf2 protein-protein interaction” (Janssen Pharmaceutica NV, priority 2018, dated 2021)

Legend:
[1] = system: Glo-Response ARE-luc2P HEK293 cell line; test: ARE luciferase reporter cell-based assay; conditions: Homo sapiens, HEK293, 24 h, average of results obtained;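 note: luciferase signal tracks Nrf2 activation of the ARE once compounds disrupt KEAP1-Nrf2 binding, read with One-Glo reagent, DMSO serving as low control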
[2] = target: Kelch domain of human KEAP1 (321-624 aa) (Homo sapiens (Human), UniProt Q14145); test: KEAP1 KELCH ThermoFluor binding assay; conditions: KEAP Kelch […], 1,8-ANS, pH 7.0, average of results obtained, read-out: Tf Kd;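 note: Ligand-induced melting temperature shift of E. coli-expressed KEAP1 Kelch protein, Kd estimated from concentration-response curves of ΔTm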
Sequence of Kelch domain of human KEAP1 (321-624 aa) (Q14145 321-624): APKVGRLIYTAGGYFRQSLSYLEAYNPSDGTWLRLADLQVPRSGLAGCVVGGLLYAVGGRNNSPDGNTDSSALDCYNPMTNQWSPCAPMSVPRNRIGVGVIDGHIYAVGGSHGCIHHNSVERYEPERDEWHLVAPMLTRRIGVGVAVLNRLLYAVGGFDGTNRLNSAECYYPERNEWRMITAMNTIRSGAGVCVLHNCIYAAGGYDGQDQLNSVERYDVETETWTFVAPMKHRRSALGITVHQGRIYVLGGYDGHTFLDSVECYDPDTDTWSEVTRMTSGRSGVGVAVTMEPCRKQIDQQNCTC

Compound	EC50 [1] [µM]	Kd [2] [µM]
CC[C@@H]1CN(Cc2nc([C@@H](CC(=O)O)c3ccc4c(nnn4C4CC4)c3C)ccc2C)S(=O)(=O)c2cccnc2O1 (single isomer, unassigned) [Example 175, (*S)-3-(1-Cyclopropyl-4-methyl-1H-benzo[d][1,2,3]triazol-5-yl)-3-(6-(((R)-4-ethyl-1,1-dioxido-3,4-dihydro-2H-pyrido[2,3-b][1,4,5]oxathiazepin-2-yl)methyl)-5-methylpyridin-2-yl)propanoic Acid]	0.0053	< 0.001
CCn1nnc2c(C)c([C@@H](CC(=O)O)c3ccc(C)c(CN4C[C@@H]5CCCCN5c5ncccc5S4(=O)=O)n3)ccc21 (single isomer, unassigned) [Example 303, (*R)-3-(6-(((*S)-5,5-Dioxido-7,7a,8,9,10,11-hexahydro-6H-dipyrido[2,1-d:2′,3′-][1,2,5]thiadiazepin-6-yl)methyl)-5-methylpyridin-2-yl)-3-(1-ethyl-4-methyl-1H-benzo[d][1,2,3]triazol-5-yl)propanoic Acid]	0.0271	< 0.001
Cc1ccc([C@@H](c2ccn3c(C4CC4)nnc3c2C)C(C)(C)C(=O)O)cc1CN1CC2(CC2)Oc2nc(OCCN3CCCC3)c(C)cc2S1(=O)=O (single isomer, unassigned) [Example 663, (*S)-3-(3-Cyclopropyl-8-methyl-[1,2,4]triazolo[4,3-a]pyridin-7-yl)-2,2-dimethyl-3-(4-methyl-3-((8′-methyl-1′,1′-dioxido-7′-(2-(pyrrolidin-1-yl)ethoxy)spiro[cyclopropane-1,4′-pyrido[2,3-b][1,4,5]oxathiazepin]-2′(3′H)-yl)methyl)phenyl)propanoic Acid]	0.0575	< 0.001
Cc1cnc2c(c1)S(=O)(=O)N(Cc1cc([C@H](c3ccn4c(C(F)(F)F)nnc4c3C)C(C)(C)C(=O)O)ccc1C)CC1(CCOCC1)O2 (single isomer, unassigned) [Example 19, (*R)-2,2-Dimethyl-3-(4-methyl-3-((8′-methyl-1′,1′-dioxido-2,3,5,6-tetrahydrospiro[pyran-4,4′-pyrido[2,3-b][1,4,5]oxathiazepin]-2′(3′H)-yl)methyl)phenyl)-3-(8-methyl-3-(trifluoromethyl)-[1,2,4]triazolo[4,3-a]pyridin-7-yl)propanoic Acid]	0.789	1.28
Cc1ccc([C@H](c2ccn3c(C(F)(F)F)nnc3c2C)C(C)(C)C(=O)O)cc1CN1CC2(CCOCC2)Oc2nc(N[C@H](C)CN3CCOCC3)c(C)cc2S1(=O)=O (single isomer, unassigned) [Example 362, (*R)-2,2-Dimethyl-3-(4-methyl-3-((8′-methyl-7′-(((R-1-morpholinopropan-2-yl)amino)-1′,1′-dioxido-2,3,5,6-tetrahydrospiro[pyran-4,4′-pyrido[2,3-b][1,4,5]oxathiazepin]-2′(3′H)-yl)methyl)phenyl)-3-(8-methyl-3-(trifluoromethyl)-[1,2,4]triazolo[4,3-a]pyridine-7-yl)propanoic Acid]	0.0205	< 0.001
CCn1nnc2c(C)c(C(CC(=O)O)c3ccc(C)c(CN4C[C@@H]5CCCCN5c5ncccc5S4(=O)=O)n3)ccc21 (stereo in doubt) [Example 301, 3-(6-(((*S)-5,5-Dioxido-7,7a,8,9,10,11-hexahydro-6H-dipyrido[2,1-d:2′,3′-][1,2,5]thiadiazepin-6-yl)methyl)-5-methylpyridin-2-yl)-3-(1-ethyl-4-methyl-1H-benzo[d][1,2,3]triazol-5-yl)propanoic Acid]	0.0047	< 0.001
Cc1cc2cc([C@@H](CC(=O)O)c3ccc(C)c(CN4C[C@H]5CCCN5c5ncccc5S4(=O)=O)c3)n(C)c2nn1 (single isomer, unassigned) [Example 435, (*S)-3-(3,7-Dimethyl-7H-pyrrolo[2,3-c]pyridazin-6-yl)-3-(3-(((R)-5,5-dioxido-7a,8,9,10-tetrahydropyrido[2,3-f]pyrrolo[2,1-d][1,2,5]thiadiazepin-6(7H)-yl)methyl)-4-methylphenyl)propanoic Acid]	> 20	0.119
Cc1ccc([C@H](c2ccc3c(nnn3CC3CC3)c2C)C(C)(C)C(=O)O)nc1CN1CC2(CCOCC2)Oc2nc(OCCN3CCOCC3)ccc2S1(=O)=O (single isomer, unassigned) [Example 329, (*R)-3-(1-(Cyclopropylmethyl)-4-methyl-1H-benzo[d][1,2,3]triazol-5-yl)-2,2-dimethyl-3-(5-methyl-6-((7′-(2-morpholinoethoxy)-1′,1′-dioxido-2,3,5,6-tetrahydrospiro[pyran-4,4′-pyrido[2,3-b][1,4,5]oxathiazepin]-2′(3′H)-yl)methyl)pyridin-2-yl)propanoic Acid]	1.9	1.88
Cc1ccc([C@@H](c2ccn3c(C(F)(F)F)nnc3c2C)C(C)(C)C(=O)O)cc1CN1CC2(CC2)Oc2nc(OCCN3CCCC3)ccc2S1(=O)=O (single isomer, unassigned) [Example 598, (*S)-3-(3-((1′,1′-dioxido-7′-(2-(pyrrolidine-1-yl)ethoxy)spiro[cyclopropane-1,4′-pyrido[2,3-b][1,4,5]oxathiazepin]-2′(3′H)-yl)methyl)-4-methylphenyl)-2,2-dimethyl-3-(8-methyl-3-(trifluoromethyl)-[1,2,4]triazolo[4,3-a]pyridine-7-yl)propanoic Acid]	0.00885	< 0.001
Cc1ccc([C@@H](c2ccn3c(C(F)(F)F)nnc3c2C)C(C)(C)C(=O)O)nc1CN1CC2(CCOCC2)Oc2nc(OCCN3CCOCC3)ccc2S1(=O)=O (single isomer, unassigned) [Example 325, (*S)-2,2-Dimethyl-3-(8-methyl-3-(trifluoromethyl)-[1,2,4]triazolo[4,3-a]pyridin-7-yl)-3-(5-methyl-6-((7′-(2-morpholinoethoxy)-1′,1′-dioxido-2,3,5,6-tetrahydrospiro[pyran-4,4′-pyrido[2,3-b][1,4,5]oxathiazepin]-2′(3′H)-yl)methyl)pyridin-2-yl)propanoic Acid]	0.0172	< 0.001
Cc1ccc([C@H](CC(=O)O)c2ccn3c(C(F)F)nnc3c2C)cc1CN1CC2(CC2)Oc2ncccc2S1(=O)=O (single isomer, unassigned) [Example 473, (*S)-3-(3-(Difluoromethyl)-8-methyl-[1,2,4]triazolo[4,3-a]pyridin-7-yl)-3-(3-((1′,1′-dioxidospiro[cyclopropane-1,4′-pyrido[2,3-b][1,4,5]oxathiazepin]-2′(3′H)-yl)methyl)-4-methylphenyl)propanoic Acid]	0.104	< 0.001
Cc1ccc([C@H](CC(=O)O)c2ccn3c(C(F)(F)F)nnc3c2C)cc1CN1C[C@H]2CCN2c2ncccc2S1(=O)=O (single isomer, unassigned) [Example 294, (*S)-3-(3-(((*R)-5,5-Dioxido-7,7a, 8,9-tetrahydro-6H-azeto[2,1-d]pyrido[2,3-f][1,2,5]thiadiazepin-6-yl)methyl)-4-methylphenyl)-3-(8-methyl-3-(trifluoromethyl)-[1,2,4]triazolo[4,3-a]pyridin-7-yl)propanoic Acid]	0.27	0.00161
Cc1ccc([C@@H](CC(=O)O)c2ccn3c(C(F)F)nnc3c2C)cc1CN1C[C@H]2CCCN2c2ncc(C#N)cc2S1(=O)=O (single isomer, unassigned) [Example 541, (*R)-3-(3-(((*R)-3-Cyano-5,5-dioxido-7a,8,9,10-tetrahydropyrido[2,3-f]pyrrolo[2,1-d][1,2,5]thiadiazepin-6(7H)-yl)methyl)-4-methylphenyl)-3-(3-(difluoromethyl)-8-methyl-[1,2,4]triazolo[4,3-a]pyridin-7-yl)propanoic Acid]	0.223	< 0.001
Cc1ccc([C@@H](c2ccn3c(C(F)(F)F)nnc3c2C)C(C)(C)C(=O)O)cc1CN1CC2(CC2)Oc2nc(OCCN3CCC(F)CC3)c(C)cc2S1(=O)=O (single isomer, unassigned) [Example 661, (*S)-3-(3-((7′-(2-(4-fluoropiperidin-1-yl)ethoxy)-8′-methyl-1′,1′-dioxidospiro[cyclopropane-1,4′-pyrido[2,3-b][1,4,5]oxathiazepin]-2′(3′H)-yl)methyl)-4-methylphenyl)-2,2-dimethyl-3-(8-methyl-3-(trifluoromethyl)-[1,2,4]triazolo[4,3-a]pyridine-7-yl)propanoic Acid]		< 0.001
Cc1ccc([C@@H](c2ccc3c(nnn3C3CC3)c2C)C(C)(C)C(=O)O)cc1CN1CC2(CC2)Oc2nc(N[C@@H](C)CN3CCCCC3)c(C)cc2S1(=O)=O (single isomer, unassigned) [Example 659, (*S)-3-(1-Cyclopropyl-4-methyl-1H-benzo[d][1,2,3]triazol-5-yl)-2,2-dimethyl-3-(4-methyl-3-((8′-methyl-1′,1′-dioxido-7′-(((S)-1-(piperidin-1-yl)propan-2-yl)amino)spiro[cyclopropane-1,4′-pyrido[2,3-b][1,4,5]oxathiazepin]-2′(3′H)-yl)methyl)phenyl)propanoic Acid]		< 0.001
Cc1cnc2c(c1)S(=O)(=O)N(Cc1cc(C(c3ccn4c(C(F)(F)F)nnc4c3C)C(C)(C)C(=O)O)cnc1C)CC1(CC1)O2 (single isomer, unassigned) [Example 574, (*R)-2,2-Dimethyl-3-(8-methyl-3-(trifluoromethyl)-[1,2,4]triazolo[4,3-a]pyridin-7-yl)-3-(6-methyl-5-((8′-methyl-1′,1′-dioxidospiro[cyclopropane-1,4′-pyrido[2,3-b][1,4,5]oxathiazepin]-2′(3′H)-yl)methyl)pyridin-3-yl)propanoic Acid]		6.75
Cc1cnc2c(c1)S(=O)(=O)N(Cc1cc([C@H](c3ccn4c(C(F)(F)F)nnc4c3C)C(C)(C)C(=O)O)cnc1C)CC1(CC1)O2 (single isomer, unassigned) [Example 573, (*S)-2,2-Dimethyl-3-(8-methyl-3-(trifluoromethyl)-[1,2,4]triazolo[4,3-a]pyridin-7-yl)-3-(6-methyl-5-((8′-methyl-1′,1′-dioxidospiro[cyclopropane-1,4′-pyrido[2,3-b][1,4,5]oxathiazepin]-2′(3′H)-yl)methyl)pyridin-3-yl)propanoic Acid]		< 0.001
